This test deals with Protein arginine deiminase 4 (PAD4) (Homo sapiens, UniProt Q9UM07). As to the kind of experiment: PAD4 ammonia release assay. The class given is biochemical. How it is done:
1) Compound preparation: The compounds were diluted to 80× final concentrations. 2) The compounds were transferred to a 384-well assay plate by Tecan. DMSO: 1.25%. 3) Preparation of 1×Assay buffer: 100 mM HEPES, PH=8.0, 2 mM CaCl2, 50 mM NaCl, 0.1 mM TCEP, 0.6 mg/ml BSA. 4) 2× enzyme working solution (PAD4:20 nM) was prepared with assay buffer, and 10 μL of the obtained working solution were added to the 384-well assay plates. 5) The plate was centrifuged at 1000 rpm for 1 min. 6) After the centrifuge, the plate was incubated at RT for 15 min. 7) 2×BAEE substrate mix (600 μM) was prepared with assay buffer and 10 μL of the obtained substrate mix were added to each well. 8) The plate was centrifuged at 1000 rpm for 1 min and then incubated at RT for 60 min. 9) 1.5× detection mix (DTT:4 mM, OPA:3 mM, EDTA: 30 mM) was prepared, and 10 μL of the mix were added to the plate. 10) The plate was centrifuged at 1000 rpm for 1 min and then incubated at RT for 120 min. 11) The 384-well plates were placed into the Envision (PerkinElmer) and the assay data were collected.
The percent (%) inhibition at each concentration of compound was calculated based on and relative to the signal in the HPE (50 μM ref. compound) and ZPE (1.25% DMSO) wells included within each assay plate. The HPE worked as 100% inhibition, and the ZPE worked as 0% inhibition. The concentrations and % inhibition values for tested compounds were plotted and the concentration of compound required for 50% inhibition (IC50) was determined with a Four-parameter logistic dose response equation. The endpoint value (IC50) for the reference compound was evaluated in each experiment as a quality control measure. If the endpoint value is within 3-fold of the expected value, then the experiment quality is deemed as acceptable. The results are provided in Table 1 below. ≤0.1 μM=“++++”; >0.1 and ≤0.5 μM=“+++”; >0.5 and ≤5.0 μM=“++”; >5.0 μM=“+”. “−”=not available.

Where [1] appears, read: PAD4 ammonia release assay, BAEE substrate, 60 min at RT, read-out: Average IC50 Abs.
[2] abbreviates: PAD4 activity comparison, read-out: PAD4 Ammonia assay IC50.

Each structure is given as a SMILES string. Where “and” joins values, the source holds several entries; their conditions need not be identical. Equal values may be shown once. Read-outs that look alike come from different tables or passages of the source.

Protein arginine deiminase 4 (PAD4), sequence (Q9UM07 whole entry): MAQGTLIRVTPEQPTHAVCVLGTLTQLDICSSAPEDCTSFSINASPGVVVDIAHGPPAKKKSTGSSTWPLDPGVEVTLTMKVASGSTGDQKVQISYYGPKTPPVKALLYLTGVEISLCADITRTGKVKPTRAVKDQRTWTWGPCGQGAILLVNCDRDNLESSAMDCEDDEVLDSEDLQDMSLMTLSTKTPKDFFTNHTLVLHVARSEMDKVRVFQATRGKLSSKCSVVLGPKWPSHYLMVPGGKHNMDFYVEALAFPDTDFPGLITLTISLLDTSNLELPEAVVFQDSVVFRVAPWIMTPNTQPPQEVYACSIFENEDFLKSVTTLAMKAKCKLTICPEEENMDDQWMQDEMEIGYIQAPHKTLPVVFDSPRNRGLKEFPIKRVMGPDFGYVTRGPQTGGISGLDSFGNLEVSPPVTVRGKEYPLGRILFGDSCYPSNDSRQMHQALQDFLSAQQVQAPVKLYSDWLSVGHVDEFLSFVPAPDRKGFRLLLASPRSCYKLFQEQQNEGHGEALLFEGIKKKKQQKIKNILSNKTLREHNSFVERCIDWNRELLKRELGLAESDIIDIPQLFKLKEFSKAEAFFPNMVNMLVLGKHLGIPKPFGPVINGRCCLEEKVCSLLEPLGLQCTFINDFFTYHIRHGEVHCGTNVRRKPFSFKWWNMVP

One may read the IC50 as the point on the concentration scale where inhibition reaches its midpoint. Consider `Cn1c(-c2cc3cccc4c3n2C(C2CC2)CN4)nc2cc(C(=O)N3C[C@H]4CC[C@@H]3[C@@H]4N)cc(F)c21` (mixture of isomers) [Example 108, ((1R,4R,7R)-7-amino-2-azabicyclo[2.2.1]heptan-2-yl)(2-(3-cyclopropyl-2,3-dihydro-1H-pyrrolo[1,2,3-de]quinoxalin-5-yl)-7-fluoro-1-methyl-1H-benzo[d]imidazol-5-yl)methanone], for which the half-inhibitory concentration (IC50) under setting [1] was not above 0.1 µM.

For the compound `Cn1c(-c2cc3cccc4c3n2[C@H](C2CC2)CN4)nc2cc(C(=O)N3C[C@H]4CC[C@@H]3[C@@H]4N)cc(F)c21` (single isomer, unassigned) [Example 109], under setting [1], the half-maximal inhibitory concentration (IC50) was 0.5 to 5 µM.

In the case of `Cn1c(-c2cc3cccc4c3n2[C@H](C2CC2)CN4CCCO)nc2cc(C(=O)N3C[C@H]4CC[C@@H]3[C@@H]4N)cc(F)c21` (single isomer, unassigned) [Example 113], the IC50 under setting [1] lay in the range of 0.5 to 5 µM.

Regarding `Cn1c(-c2cc3ccc(C#N)c4c3n2[C@H](C2CC2)CN4)nc2cc(C(=O)N3C[C@H]4CC[C@@H]3[C@@H]4N)cc(F)c21` (single isomer, unassigned) [Example 116], the half-inhibitory concentration (IC50) under setting [1] was in the range of 0.5 to 5 µM.

In the case of `CC[C@@H]1[C@H](C)Nc2cccc3cc(-c4nc5cc(C(=O)N6C[C@H]7CC[C@@H]6[C@@H]7N)cc(F)c5n4C)n1c23` (single isomer, unassigned) [Example 133], under setting [1], the IC50 is more than 5 µM.

With `Cn1c(-c2cc3cccc4c3n2CCO4)nc2cc(C(=O)N3CCC[C@@H](N)C3)ccc21` [A, reference compound], the IC50 under setting [2] was ~15.2 µM and 15.2 µM.

`CC1COc2cccc3cc(-c4nc5cc(C(=O)N6CCC[C@@H](N)C6)ccc5n4C)n1c23` (stereo partly drawn) [B, reference compound]: the IC50 under setting [2] worked out at 7.28 µM.

Consider `COc1cc(C(=O)N2C[C@H](N)C[C@@H](F)C2)cc2nc(-c3cc4cccc5c4n3CCN5CCCNC(C)=O)n(C)c12` [Example 1, N-(3-(5-(5-((3R,5R)-3-amino-5-fluoropiperidine-1-carbonyl)-7-methoxy-1-methyl-1H-benzo[d]imidazol-82-yl)-2,3-dihydro-1H-pyrrolo[1,2,3-de]quinoxalin-1-yl)propyl)acetamide], for which the IC50 under setting [1] is 0.5 to 5 µM.

As to `COc1cc(C(=O)N2CCC[C@@H](N)C2)cc2nc(-c3cc4cccc5c4n3CCN5CCCNC(C)=O)n(C)c12` [Example 3, (R)—N-(3-(5-(5-(3-aminopiperidine-1-carbonyl)-7-methoxy-1-methyl-1H-benzo[d]imidazol-2-yl)-2,3-dihydro-1H-pyrrolo[1,2,3-de]quinoxalin-1-yl)propyl)acetamide], under setting [1], the IC50 is 0.5 to 5 µM.

On to `COc1cc(C(=O)N2C[C@H](N)C[C@@H](F)C2)cc2nc(-c3cc4cccc5c4n3CCN5CCCNC(=O)NC3CC3)n(C)c12` [Example 4, 1-(3-(5-(5-((3R,5R)-3-amino-5-fluoropiperidine-1-carbonyl)-7-methoxy-1-methyl-1H-benzo[d]imidazol-2-yl)-2,3-dihydro-1H-pyrrolo[1,2,3-de]quinoxalin-1-yl)propyl)-3-cyclopropylurea], for which the IC50 under setting [1] fell in the range of 0.5 to 5 µM.

Turning to `COc1cc(C(=O)N2CCC[C@@H](N)C2)cc2nc(-c3cc4cccc5c4n3CCN5CCCNC(=O)NC3CC3)n(C)c12` [Example 5, (R)-1-(3-(5-(5-(3-aminopiperidine-1-carbonyl)-7-methoxy-1-methyl-1H-benzo[d]imidazol-2-yl)-2,3-dihydro-1H-pyrrolo[1,2,3-de]quinoxalin-1-yl)propyl)-3-cyclopropylurea], under setting [1], the half-inhibitory concentration (IC50) was 0.5 to 5 µM.

Turning to `COc1cc(C(=O)N2C[C@H]3CC[C@@H]2[C@@H]3N)cc2nc(-c3cc4cccc5c4n3CCN5CCCNC(=O)NC3CC3)n(C)c12` [Example 6, 1-(3-(5-(5-((1R,4R,7R)-7-amino-2-azabicyclo[2.2.1]heptane-2-carbonyl)-7-methoxy-1-methyl-1H-benzo[d]imidazol-2-yl)-2,3-dihydro-1H-pyrrolo[1,2,3-de]quinoxalin-1-yl)propyl)-3-cyclopropylurea], the half-inhibitory concentration (IC50) under setting [1] is 0.5 to 5 µM.

For `COc1cc(C(=O)N2CCC[C@@H](N)C2)cc2nc(-c3cc4cccc5c4n3CCN5CCCN)n(C)c12` [Example 7], the IC50 under setting [1] lay in the range of 0.5 to 5 µM.

Regarding `COc1cc(C(=O)N2CCC[C@@H](N)C2)cc2nc(-c3cc4cccc5c4n3CCC(=O)N5)n(C)c12` [Example 8, (R)-6-(5-(3-aminopiperidine-1-carbonyl)-7-methoxy-1-methyl-1H-benzo[d]imidazol-2-yl)-3,4-dihydro-[1,4]diazepino[3,2,1-hi]indol-2(1H)-one], under setting [1], the IC50 was more than 5 µM.

As for `COc1cc(C(=O)N2CCC[C@@H](N)C2)cc2nc(-c3cc4cccc5c4n3CC(=O)N5)n(C)c12` [Example 9, (R)-5-(5-(3-aminopiperidine-1-carbonyl)-7-methoxy-1-methyl-1H-benzo[d]imidazol-2-yl)-1H-pyrrolo[1,2,3-de]quinoxalin-2(3H)-one], the IC50 under setting [1] was more than 5 µM.

Take `COc1cc(C(=O)N2C[C@H]3CC[C@@H]2[C@@H]3N)cc2nc(-c3cc4cccc5c4n3CCN5CCO)n(C)c12` [Example 11, ((1R,4R,7R)-7-amino-2-azabicyclo[2.2.1]heptan-2-yl)(2-(1-(2-hydroxyethyl)-2,3-dihydro-1H-pyrrolo[1,2,3-de]quinoxalin-5-yl)-7-methoxy-1-methyl-1H-benzo[d]imidazol-5-yl)methanone]: under setting [1], the IC50 was in the range of 0.5 to 5 µM.

As to `COc1cc(C(=O)N2CC[C@@H](N)C2)cc2nc(-c3cc4cccc5c4n3CCN5CCCO)n(C)c12` [Example 15, (R)-(3-aminopyrrolidin-1-yl)(2-(1-(3-hydroxypropyl)-2,3-dihydro-1H-pyrrolo[1,2,3-de]quinoxalin-5-yl)-7-methoxy-1-methyl-1H-benzo[d]imidazol-5-yl)methanone], under setting [1], the IC50 was more than 5 µM.

`COc1cc(C(=O)N2CCC[C@@](C)(N)C2)cc2nc(-c3cc4cccc5c4n3CCN5CCCO)n(C)c12` [Example 16, (R)-(3-amino-3-methylpiperidin-1-yl)(2-(1-(3-hydroxypropyl)-2,3-dihydro-1H-pyrrolo[1,2,3-de]quinoxalin-5-yl)-7-methoxy-1-methyl-1H-benzo[d]imidazol-5-yl)methanone]: under setting [1], the half-maximal inhibitory concentration (IC50) was more than 5 µM.

`COc1cc(C(=O)N2C[C@H](N)C[C@@H](C(F)(F)F)C2)cc2nc(-c3cc4cccc5c4n3CCN5CCCO)n(C)c12` [Example 17, ((3R,5R)-3-amino-5-(trifluoromethyl)piperidin-1-yl)(2-(1-(3-hydroxypropyl)-2,3-dihydro-1H-pyrrolo[1,2,3-de]quinoxalin-5-yl)-7-methoxy-1-methyl-1H-benzo[d]imidazol-5-yl)methanone]: the concentration for half-maximal inhibition (IC50) under setting [1] was more than 5 µM.

For the compound `COc1cc(C(=O)N2C[C@H](N)CC(F)(F)C2)cc2nc(-c3cc4cccc5c4n3CCN5CCCO)n(C)c12` [Example 18, (R)-(5-amino-3,3-difluoropiperidin-1-yl)(2-(1-(3-hydroxypropyl)-2,3-dihydro-1H-pyrrolo[1,2,3-de]quinoxalin-5-yl)-7-methoxy-1-methyl-1H-benzo[d]imidazol-5-yl)methanone], the 50% inhibitory concentration (IC50) under setting [1] lay in the range of 0.5 to 5 µM.

Consider `COc1cc(C(=O)N2CCC[C@](C)(N)C2)cc2nc(-c3cc4cccc5c4n3CCN5CCCO)n(C)c12` [Example 19, (S)-(3-amino-3-methylpiperidin-1-yl)(2-(1-(3-hydroxypropyl)-2,3-dihydro-1H-pyrrolo[1,2,3-de]quinoxalin-5-yl)-7-methoxy-1-methyl-1H-benzo[d]imidazol-5-yl)methanone], for which, under setting [1], the IC50 was more than 5 µM.

As for `COc1cc(C(=O)N2CC[C@@H](F)[C@@H](N)C2)cc2nc(-c3cc4cccc5c4n3CCN5CCCO)n(C)c12` [Example 20, ((3S,4R)-3-amino-4-fluoropiperidin-1-yl)(2-(1-(3-hydroxypropyl)-2,3-dihydro-1H-pyrrolo[1,2,3-de]quinoxalin-5-yl)-7-methoxy-1-methyl-1H-benzo[d]imidazol-5-yl)methanone], under setting [1], the concentration for half-maximal inhibition (IC50) was in the range of 0.5 to 5 µM.

For the compound `COCCCN1CCn2c(-c3nc4cc(C(=O)N5CCC[C@@H](N)C5)cc(OC)c4n3C)cc3cccc1c32` [Example 21, (R)-(3-aminopiperidin-1-yl)(7-methoxy-2-(1-(3-methoxypropyl)-2,3-dihydro-1H-pyrrolo[1,2,3-de]quinoxalin-5-yl)-1-methyl-1H-benzo[d]imidazol-5-yl)methanone], the IC50 under setting [1] was in the range of 0.5 to 5 µM.

In the case of `COc1cc(C(=O)N2C[C@H](N)C[C@@H](F)C2)cc2nc(-c3cc4cccc5c4n3CCN5CCOCCO)n(C)c12` [Example 22, ((3R,5R)-3-amino-5-fluoropiperidin-1-yl)(2-(1-(2-(2-hydroxyethoxy)ethyl)-2,3-dihydro-1H-pyrrolo[1,2,3-de]quinoxalin-5-yl)-7-methoxy-1-methyl-1H-benzo[d]imidazol-5-yl)methanone], under setting [1], the IC50 was in the range of 0.1 to 0.5 µM.

The record behind these values is patent US20250136607A1 (REGOR PHARMACEUTICALS, INC., priority 2021, published 2025).
